Experimental data: US20040220164A1, “Triaza compound immunoregulatory agents” (priority 2001, published 2004)
Where two headings read alike, the source gives them in different places.

Tests used:
CD4 = CD4 (Homo sapiens, UniProt P01730); test: Intracellular CD4 staining; assay type: cell-based; design: To study the effect of the CADA derivatives on surface CD4 antigen expression, MT-4 and SupT1 cells were incubated; endogenous in cells; host or cells: MT-4, SupT1, PBMC; conditions: SupT1 cells, CADA 3.2 μM, 4 days; untreated 97.3%
Procedure: FIGS. 3A-3B. Intracellular CD4 staining in SupT1 cells after incubation with CADA hydrochloride (3.2 μM) for 4 days. (A) The intracellular CD4 expression of SupT1 cells cultured in medium alone and (B) treated with CADA for 4 days.
The effect of CADA on the intracellular presence of CD4 was also investigated. […] Similar results were also obtained in MT-4 cells and in PBMCs, and with two other anti-CD4 mAbs (OKT4A and OKT4).

[1] = Cytotoxic concentration (Example 2); assay type: cell-based; conditions: human, SupT1 cells; read-out: cytotoxic concentration (CC50)
[2] = Cytotoxic concentration (Example 2); assay type: cell-based; conditions: human, PBMC
CD38 = test: Cell surface antigen expression by flow cytometry (Table 2); assay type: cell-based, human; conditions: CADA 16 μM, 4 days, percentage of positive cells, unit not given
Procedure: (§1) Expression of various other surface antigens was also examined in MT-4 cells, SupT1 cells and PBMCs after incubation with CADA (16 μM) or CADA-free medium at 37° C. for 4 days. After washing with phosphate-buffered saline (PBS) containing 2% FCS(fetal calf serum), the cells were incubated with mAb (as indicated in Table 1) for 20 min at 4° C. Then the cells were washed, fixed with 1% formaldehyde and analyzed by flow cytometry. All mAbs were purchased from Becton-Dickinson (Erembodegem, Belgium).

CD71 = test: as above; assay type: cell-based, human; conditions: CADA 16 μM, 4 days, percentage of positive cells, unit not given
Procedure: as §1

CD11b = test: as above; assay type: cell-based, human; conditions: CADA 16 μM, 4 days, percentage of positive cells, unit not given
Procedure: as §1

CD26 = test: as above; assay type: cell-based, human; conditions: CADA 16 μM, 4 days, percentage of positive cells, unit not given
Procedure: as §1

CD28 = test: as above; assay type: cell-based, human; conditions: CADA 16 μM, 4 days, percentage of positive cells, unit not given
Procedure: as §1

CD8 = test: as above; assay type: cell-based, human; conditions: CADA 16 μM, 4 days, percentage of positive cells, unit not given
Procedure: as §1

CD3 = test: as above; assay type: cell-based, human; conditions: CADA 16 μM, 4 days, percentage of positive cells, unit not given
Procedure: as §1

CD57 = test: as above; assay type: cell-based, human; conditions: CADA 16 μM, 4 days, percentage of positive cells, unit not given
Procedure: as §1

Structure (SMILES): C=C1CN(S(=O)(=O)c2ccc(C)cc2)CCCN(Cc2ccccc2)CCCN(S(=O)(=O)c2ccc(C)cc2)C1 [CADA]
- percentage of intracellular CD4 expression (CD4): 1.3%
- CC50 [1]: 185 µM
- CC50 [2]: 73 µM
- CD38 cell surface antigen expression (CD38; MT-4 T-cells): 84.5
- CD38 cell surface antigen expression (CD38; PBMCs): 73.2
- CD38 cell surface antigen expression (CD38; SupT1 T-cells): 99.1
- CD71 cell surface antigen expression (CD71; MT-4 T-cells): 98.8
- CD71 cell surface antigen expression (CD71; PBMCs): 27.6
- CD71 cell surface antigen expression (CD71; SupT1 T-cells): 33.9
- CD11b cell surface antigen expression (CD11b; MT-4 T-cells): 9.7
- CD11b cell surface antigen expression (CD11b; PBMCs): 12.3
- CD11b cell surface antigen expression (CD11b; SupT1 T-cells): 0.6
- CD26 cell surface antigen expression (CD26; MT-4 T-cells): 3.2
- CD26 cell surface antigen expression (CD26; PBMCs): 3.2
- CD26 cell surface antigen expression (CD26; SupT1 T-cells): 0.3
- CD28 cell surface antigen expression (CD28; MT-4 T-cells): 6.6
- CD28 cell surface antigen expression (CD28; PBMCs): 89.6
- CD28 cell surface antigen expression (CD28; SupT1 T-cells): 90.8
- CD8 cell surface antigen expression (CD8; MT-4 T-cells): 3.5
- CD8 cell surface antigen expression (CD8; PBMCs): 25.1
- CD8 cell surface antigen expression (CD8; SupT1 T-cells): 92.3
- CD3 cell surface antigen expression (CD3; MT-4 T-cells): 5.9
- CD3 cell surface antigen expression (CD3; PBMCs): 89.4
- CD3 cell surface antigen expression (CD3; SupT1 T-cells): 2.7
- CD57 cell surface antigen expression (CD57; MT-4 T-cells): 1.5
- CD57 cell surface antigen expression (CD57; PBMCs): 2.3
- CD57 cell surface antigen expression (CD57; SupT1 T-cells): 82.4
